Experimental findings from patent US7368470B2, “Substituted 3-pyrrolidine-indole derivatives” (Gruenenthal GmbH, priority 2003, dated 2008) are described below.

Test [1] concerns the target T1, noradrenalin reuptake (NA uptake) (Rattus norvegicus, UniProt Q9WTR4).
T1 construct: These vesicular particles were isolated from the hypothalamus of male rats' brains for NA uptake; from tissue; host or cells: rat brain synaptosomes (P2 fraction; cerebral cortex / hypothalamus of male rats)
Kind of test: Noradrenalin reuptake inhibition (NA uptake inhibition) in rat brain synaptosomes. It is filed as biochemical. The following applies: synaptosomes from male rats' brains. From the text: b) Tests on Noradrenalin Reuptake Inhibition
In order to be able to carry out these in vitro studies, synaptosomes from rats' cerebral cortices were freshly isolated. A “P2” fraction, prepared according to Gray and Whittaker's instructions (E. G. Gray and V. P. Whittaker (1962) J. Anat. 76, 79-88) was used in each case. These vesicular particles were isolated from the hypothalamus of male rats' brains for NA uptake.
A detailed description of the method may be found in the literature (M. Ch. Frink, H.-H. Hennies, W. Englberger, M. Haurand and B. Wilffert (1996) Arzneim.-Frosch./Drug Res. 46 (III), 11, 1029-1036).

Test [2] relates to binding site 2 of the sodium channel (batrachotoxin (BTX) binding site). Kind of test: Binding test on the sodium channel, binding site 2 (BTX bond), [3H]-batrachotoxinin A20 α-benzoate as ligand. Further details: species or system rat. The settings on record: 10 μM; rat cerebrocortex synaptosomes; ligand 10 nM; 25° C., 120 min.
In test [3] the target is T2, serotonin reuptake (5HT uptake) (Rattus norvegicus, UniProt P31652).
T2 construct: These vesicular particles were isolated from the hypothalamus of male rats' brains for 5HT uptake; from tissue; host or cells: rat brain synaptosomes (P2 fraction; cerebral cortex / hypothalamus of male rats)
T2 sequence (P31652 whole entry): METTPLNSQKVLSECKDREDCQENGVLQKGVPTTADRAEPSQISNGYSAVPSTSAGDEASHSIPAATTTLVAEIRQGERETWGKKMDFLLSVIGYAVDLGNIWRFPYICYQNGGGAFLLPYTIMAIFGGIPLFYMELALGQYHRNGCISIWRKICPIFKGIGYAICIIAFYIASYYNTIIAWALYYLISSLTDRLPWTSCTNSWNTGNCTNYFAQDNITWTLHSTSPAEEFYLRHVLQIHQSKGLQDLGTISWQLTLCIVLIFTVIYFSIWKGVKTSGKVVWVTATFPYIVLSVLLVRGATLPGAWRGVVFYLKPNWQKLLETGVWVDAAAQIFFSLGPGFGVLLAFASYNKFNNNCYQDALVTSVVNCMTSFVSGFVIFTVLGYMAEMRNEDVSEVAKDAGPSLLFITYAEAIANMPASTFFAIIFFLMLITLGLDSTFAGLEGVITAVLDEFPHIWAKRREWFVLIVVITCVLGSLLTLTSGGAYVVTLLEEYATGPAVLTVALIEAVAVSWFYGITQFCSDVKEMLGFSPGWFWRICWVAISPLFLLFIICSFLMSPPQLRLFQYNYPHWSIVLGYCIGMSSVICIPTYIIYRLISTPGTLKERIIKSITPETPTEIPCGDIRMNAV
Kind of test: Serotonin reuptake inhibition (5HT uptake inhibition) in rat brain synaptosomes. It is filed as biochemical. The settings on record: synaptosomes from male rats' brains. From the text: a) Tests on Serotonin Reuptake Inhibition
In order to be able to carry out these in vitro studies, synaptosomes from rats' cerebral cortices were freshly isolated. A “P2” fraction prepared according to Gray and Whittaker's instructions (E. G. Gray and V. P. Whittaker (1962) J. Anat. 76, 79-88) was used in each case. These vesicular particles were isolated from the hypothalamus of male rats' brains for 5HT uptake.
A detailed description of the method may be found in the literature (M. Ch. Frink, H.-H. Hennies, W. Englberger, M. Haurand and B. Wilffert (1996) Arzneim.-Forsch./Drug Res. 46 (III), 11, 1029-1036).

The term inhibition denotes the change of the read-out against control, counted positive when it falls.

T1 sequence (Q9WTR4 1-597): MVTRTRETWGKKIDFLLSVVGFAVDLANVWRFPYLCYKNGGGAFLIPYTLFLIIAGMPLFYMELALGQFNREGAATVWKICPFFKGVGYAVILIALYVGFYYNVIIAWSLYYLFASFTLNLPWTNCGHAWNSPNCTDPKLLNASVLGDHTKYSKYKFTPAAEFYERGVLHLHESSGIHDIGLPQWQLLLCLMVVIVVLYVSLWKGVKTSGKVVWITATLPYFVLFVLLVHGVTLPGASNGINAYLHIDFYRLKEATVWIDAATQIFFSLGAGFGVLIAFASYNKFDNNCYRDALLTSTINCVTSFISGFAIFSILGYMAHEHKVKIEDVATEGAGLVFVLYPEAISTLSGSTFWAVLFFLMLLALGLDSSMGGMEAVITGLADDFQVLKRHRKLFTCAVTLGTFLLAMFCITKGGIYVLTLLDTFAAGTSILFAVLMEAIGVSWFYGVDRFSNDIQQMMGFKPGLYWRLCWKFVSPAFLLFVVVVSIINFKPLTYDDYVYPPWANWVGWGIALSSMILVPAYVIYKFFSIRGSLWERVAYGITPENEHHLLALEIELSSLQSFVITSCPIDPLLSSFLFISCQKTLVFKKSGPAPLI

In the case of `Cn1cc(C2CCN(C(=O)C=Cc3ccccc3)C2)c2ccccc21` (stereo not shown) [Compound 26, 1-[3-(1-methyl-1H-indol-3-yl)-pyrrolidin-1-yl]-3-phenyl-propenone], in test [1], the “NA-uptake, inhibition [10 μM]” value is listed as 44. Moreover, the “BTX bond, % inhibition [10 μM]” value in test [2] was 93%. Besides, the “5HT uptake, % inhibition [10 μM]” value in test [3] is recorded as 62%.

In the case of `C#CCn1cc(C2CCN(C(=O)c3cccnc3SC)C2)c2ccccc21` (stereo not shown) [Compound 44, (2-methylsulphanyl-pyridin-3-yl)-[3-(1-prop-2-inyl-1H-indol-3-yl)-pyrrolidin-1-yl]-methanone], the “NA-uptake, inhibition [10 μM]” value in test [1] stood at 49. The “5HT uptake, % inhibition [10 μM]” value in test [3] is recorded as 60%.

Regarding `CCn1cc(C2CCN(C(=O)CCc3ccccc3)C2)c2ccccc21` (stereo not shown) [Compound 35, 1-[3-(1-ethyl-1H-indol-3-yl)-pyrrolidin-1-yl]-3-phenyl-propan-1-one], the inhibition at 10 µM stood at 48% in test [1] and 68% in test [3]. Also, the “BTX bond, % inhibition [10 μM]” value in test [2] is listed as 84%.

For the compound `CCn1cc(C2CCN(CC(=O)Nc3scc(C)c3C#N)C2)c2ccccc21` (stereo not shown) [Compound 52, N-(3-cyano-4-methyl-thiophen-2-yl)-2-[3-(1-ethyl-1H-indol-3-yl)-pyrrolidin-1-yl]-acetamide], the inhibition at 10 µM in test [1] turned out to be 54%; in test [3] it was 79%.

Consider `CCN(CC)C(=O)Cn1cc(C2CCN(CC(=O)Nc3ccc(C(F)(F)F)cc3)C2)c2ccccc21` (stereo not shown) [Compound 51, N,N-diethyl-2-(3-{1-[(4-trifluoromethyl-phenylcarbamoyl)-methyl]-pyrrolidin-3-yl}-indol-1-yl)-acetamide], for which at 10 µM the inhibition in test [1] was 57%.

For `CC#CCn1cc(C2CCN(CC(=O)Nc3cc(C)nn3C)C2)c2ccccc21` (stereo not shown) [Compound 49, 2-[3-(1-but-2-ynyl-1H-indol-3-yl)-pyrrolidin-1-yl]-N-(2,5-dimethyl-2H-pyrazol-3-yl)-acetamide], the inhibition at 10 µM in test [1] came out at 100%; in test [3], 68%.

On to `CCn1cc(C2CCN(C(=O)c3cc(C(F)(F)F)ccc3Cl)C2)c2ccccc21` (stereo not shown) [Compound 38, (2-chloro-5-trifluoromethyl-phenyl)-[3-(1-ethyl-1H-indol-3-yl)-pyrrolidin-1-yl]-methanone], for which the inhibition at 10 µM in test [1] amounted to 49%. Also, in test [2], the “BTX bond, % inhibition [10 μM]” value stood at 89%.

As for `COc1cccc(Cn2cc(C3CCN(C(=O)c4ccc(C)cc4)C3)c3ccccc32)c1` (stereo not shown) [Compound 43, {3-[1-(3-methoxy-benzyl)-1H-indol-3-yl]-pyrrolidin-1-yl}-p-tolyl-methanone], the “BTX bond, % inhibition [10 μM]” value in test [2] was 92%. In test [3], this compound displayed an inhibition at 10 µM of 48%.

For `Cn1cc(C2CCN(C(=O)c3ccc(-c4ccccc4)cc3)C2)c2ccccc21` (stereo not shown) [Compound 45, Biphenyl-4-yl-[3-(1-methyl-1H-indol-3-yl)-pyrrolidin-1-yl]-methanone], the inhibition at 10 µM in test [1] came to 43%; in test [3], 80%. Further, in test [2], the “BTX bond, % inhibition [10 μM]” value is 82%.

`O=C(c1ccc([N+](=O)[O-])cc1Cl)N1CCC(c2cn(Cc3cccc(F)c3)c3ccccc23)C1` (stereo not shown) [Compound 20, (2-chloro-4-nitro-phenyl)-{3-[1-(3-fluoro-benzyl)-1H-indol-3-yl]-pyrrolidin-1-yl}-methanone]: the inhibition at 10 µM in test [1] was determined as 43%; in test [3], 89%. Besides, the “BTX bond, % inhibition [10 μM]” value in test [2] is 91%.

Turning to `Cc1ccc(F)c(C(=O)N2CCC(c3cn(Cc4ccc(C#N)cc4)c4ccccc34)C2)c1Cl` (stereo not shown) [Compound 31, 4-{3-[1-(2-chloro-6-fluoro-3-methyl-benzoyl)-pyrrolidin-3-yl]-indol-1-ylmethyl}-benzonitrile], the inhibition at 10 µM in test [1] came out at 41%; in test [3], 62%. The “BTX bond, % inhibition [10 μM]” value in test [2] was found to be 92%.

As for `O=[N+]([O-])c1ccc(S(=O)(=O)N2CCC(c3c[nH]c4ccccc34)C2)cc1` (stereo not shown) [Compound 24, 3-[1-(4-nitro-benzenesulphonyl)-pyrrolidin-3-yl]-1H-indole], the inhibition at 10 µM in test [1] worked out at 59%; in test [3], 53%.

Consider `N#Cc1ccc(Cn2cc(C3CCN(C(=O)c4ccc5nonc5c4)C3)c3ccccc32)cc1` (stereo not shown) [Compound 34, 4-{3-[1-(benzo[1,2,5]oxadiazole-5-carbonyl)-pyrrolidin-3-yl]-indol-1-ylmethyl}-benzonitrile], for which the inhibition at 10 µM amounted to 49% in test [1] and 57% in test [3]. In test [2], the “BTX bond, % inhibition [10 μM]” value is recorded as 91%.

Take `CCn1cc(C2CCN(C(=O)c3cccnc3)C2)c2ccccc21` (stereo not shown) [Compound 28]: in test [1], the “NA-uptake, inhibition [10 μM]” value is 52. Also, in test [3], the “5HT uptake, % inhibition [10 μM]” value was determined as 41%.

Regarding `COCC(=O)N1CCC(c2cn(Cc3cccc(OC)c3)c3ccccc23)C1` (stereo not shown) [Compound 41, 2-methoxy-1-{3-[1-(3-methoxy-benzyl)-1H-indol-3-yl]-pyrrolidin-1-yl}-ethanone], the inhibition at 10 µM in test [1] was found to be 43%; in test [3] it was 44%.

With `CSc1ncccc1C(=O)N1CCC(c2cn(C)c3ccccc23)C1` (stereo not shown) [Compound 37, [3-(1-methyl-1H-indol-3-yl)-pyrrolidin-1-yl]-(2-methylsulphanyl-pyridin-3-yl)-methanone], the inhibition at 10 µM came to 43% in test [1] and 64% in test [3].

For the compound `COc1cccc(Cn2cc(C3CCN(C(=O)CCc4ccccc4)C3)c3ccccc32)c1` (stereo not shown) [Compound 36, 1-{3-[1-(3-methoxy-benzyl)-1H-indol-3-yl]-pyrrolidin-1-yl}-3-phenyl-propan-1-one], the “BTX bond, % inhibition [10 μM]” value in test [2] was found to be 96%. At 10 µM the inhibition in test [3] was 42%.

Consider `CCn1cc(C2CCN(C(=O)c3c(-c4ccccc4Cl)noc3C)C2)c2ccccc21` (stereo not shown) [Compound 32, [3-(2-chloro-phenyl)-5-methyl-isoxazol-4-yl]-[3-(1-ethyl-1H-indol-3-yl)-pyrrolidin-1-yl]-methanone], for which the inhibition at 10 µM in test [1] is 44%.

For the compound `Cn1cc(C2CCN(C(=O)c3cccnc3Cl)C2)c2ccccc21` (stereo not shown) [Compound 40, (2-chloro-pyridin-3-yl)-[3-(1-methyl-1H-indol-3-yl)-pyrrolidin-1-yl]-methanone], the results for the inhibition at 10 µM in test [1] and in test [3] were 43% and 66%, respectively.

In the case of `O=C(c1ccc(SC(F)(F)F)cc1)N1CCC(c2c[nH]c3ccccc23)C1` (stereo not shown) [Compound 18, [3-(1H-indol-3-yl)-pyrrolidin-1-yl]-(4-trifluoromethylsulphanyl-phenyl)-methanone], the inhibition at 10 µM in test [1] and in test [3] was 49% in each case.

Turning to `Cc1oc(C(C)(C)C)cc1C(=O)N1CCC(c2cn(Cc3ccccc3C#N)c3ccccc23)C1` (stereo not shown) [Compound 33, 2-{3-[1-(5-tert-butyl-2-methyl-furan-3-carbonyl)pyrrolidin-3-yl]-indol-1-ylmethyl)-benzonitrile], in test [2], the “BTX bond, % inhibition [10 μM]” value came out at 89%. This compound also returned an inhibition at 10 µM in test [3] of 87%.

The compound `CN(C)C(=O)Cn1cc(C2CCN(C(=S)Nc3cccc(C(F)(F)F)c3)C2)c2ccccc21` (stereo not shown) [Compound 16, N,N-dimethyl-2-{3-[1-(3-trifluoromethyl-phenylthiocarbamoyl)-pyrrolidin-3-yl]-indol-1-yl}-acetamide] had an inhibition at 10 µM in test [1] of 50%.

As to `CCn1cc(C2CCN(C(=O)c3ccc(C(F)(F)F)cc3)C2)c2ccccc21` (stereo not shown) [Compound 48, [3-(11-ethyl-1H-indol-3-yl)-pyrrolidin-1-yl]-(4-trifluoromethyl-phenyl)-methanone], in test [1], the “NA-uptake, inhibition [10 μM]” value was 40. The “5HT uptake, % inhibition [10 μM]” value in test [3] is given as 43%.
